Data: patent US20060127400A1, “Activation of regulatory T cells by alpha-melanocyte stimulating hormone” (THE SCHEPENS EYE RESEARCH INSTITUTE, INC., priority 1999, published 2006)
Entries after “also recorded” stand apart in the source; their conditions may differ. No end group written: not given here.

Legend:
primed T cells = assay: lymphokine production by TCR-stimulated primed T cells, sandwich ELISA of culture supernatant; format: cell-based, mouse (BALB/c); details: 48 h supernatant
Procedure: Sandwich Enzyme Linked Immunosorbent Assay (ELISA). The wells of a 96-well flexible microtiter plate (Falcon, Oxnard, Calif.) were coated with capturing monoclonal antibody (anti-IFN-γ; Pharmingen, San Diego, Calif.) to the cytokine being assayed. The plate was incubated overnight at 4° C. and was washed with a solution of phosphate buffer saline, […] and 1% BSA (wash buffer) and blocked with PBS plus 1% BSA (PBS-BSA). The plate was incubated for 1 hour room temperature and washed. Samples were added to the wells and the plate was incubated for 3 hours at room temperature. The plate was washed 3 times and into each well 100 μl of 1.0 μg/ml of biotinylated-detecting monoclonal anti-IFN-γ antibody (Pharmingen) was added. The plate was incubated for 1 hour and washed 3 times. Strepavidin-β-galactosidase (Gibco/BRL), 100 μl, was added to the wells and the plate was incubated for 30 min and washed 5 times. The substrate chlorophenyl-red-β-D-galactoside (CPRG: Calbiochem, San Diego, Calif.) was added to the wells and color was allowed to develop for 30 min. The optical density of the converted CPRG was read on a standard ELISA plate reader at a wavelength of 570 nm. The INF-γ concentration of the standard samples were plotted against their OD to create a standard curve. Using this standard curve, the concentration of INF-γ in the assayed culture supernatant was determined from the OD of the test well and sample dilution factor.
α-MSH treatment of primed T cells. […] The cells were collected onto filter paper using a Tomtec Plate Harvester 96, and radiolabel was measured using a Wallac 1205 Betaplate Liquid Scintillation Counter. […]
In FIG. 16A, proliferation was measured by adding to the T cell cultures 3H-thymidine 24 hours after activation and measuring the counts per minute (CPM) 24 hours later. In FIG. 16(B-D), lymphokine production was measured by assaying the 48 hour culture supernatants by sandwich ELISA for IFN-γ, IL-4, and IL-10. […]

CD4+ T cells = assay: flow cytometry of intracellular IFN-γ and IL-4 in TCR-stimulated primed T cells; format: cell-based, mouse (BALB/c); details: α-MSH 30 pg/ml, anti-CD3, 24 h
Procedure: Flow Cytometry. For immunostaining and flow cytometry, T cells (2×10^6 cells) were obtained from 24 hour cultures of enriched primed T cells TCR-stimulated in the presence of α-MSH as described above. The cells were centrifuged and washed once in 400 μl of brefeldin/PBS buffer (10 mM PBS, 10 μg/ml brefeldin A). The cells were resuspended in 100 μl of PBS/brefeldin and 100 μl of 4% paraformaldehyde/PBS fixing buffer. The cells were incubate at room temperature for 20 minutes with gentle agitation and washed once with 200 μl of brefeldin/PBS, centrifuged, and resuspended in 50 μl of PBS/saponin (10 mM PBS, 1% BSA, 0.1% Na Azide, 0.5% Saponin) and incubated 10 minutes at room temperature. To the cell suspensions 2 μg of FITC-conjugated anti-cytokine antibody (anti-IL-4 or -IFN-γ) or FITC-isotype control was added. […] The stained cells were analyzed by a Coulter Epics flow cytometer calibrated for two color fluorescence, and presented were the fluorescence of blast (proliferating) cells in two dimensions.
To further examine α-MSH suppression of IFN-γ production by T cells, the frequency of IFN-γ producing T cells activated in the presence of α-MSH was assayed by flow cytometry. […] The stained cells were analyzed by two-color flow cytometry gating on the blastogenic, proliferating T cells. […] Percent of analyzed cell population is given for each quadrant in the lower right-hand of each histogram. […]

[1] = TCR-stimulated in the presence of α-MSH

“α-melanocyte stimulating hormone (SYSMEHFRWGKPV; not fully specified; ends and bridges not checked; UniProt P01189 138-150, looked up) [α-MSH, synthetic α-MSH (Peninsula Laboratories); thirteen-amino acid neuropeptide derived from POMC]” was tested, and the “IL-4 in culture supernatant” value (primed T cells; [1]) was “no effect; also recorded: no IL-4 was detected”, the IL-10 production (primed T cells; [1]) was “suppressed” and the “IFN-γ production by TCR-stimulated primed T cells” value (primed T cells; versus T cells TCR-stimulated in the absence of α-MSH) was “significantly (p=0.05) suppressed”. The “frequency of IFN-γ positive cells, intracellular IFN-γ staining in CD4+ T cells” value (CD4+ T cells) was “substantially shifted toward lower levels” and the “intracellular IL-4 staining in CD4+ T cells” value (CD4+ T cells) was “shift to higher levels”.
